Data reported in paper PMC8301544, “A randomized, double‐blind, placebo‐ and positive‐controlled crossover study of the effects of durlobactam on cardiac repolarization in healthy subjects” (Clinical and Translational Science, 2021).
Where two headings read alike, the source gives them in different places.

Experiments:
[1] = Single dose study in subjects with varying degrees of renal impairment; type: in vivo, human; conditions: severe renal impairment category (CLcr = 0-15 ml/min)
healthy subjects [2] = test system: healthy subjects
Method: The relationship between durlobactam plasma concentration and change‐from‐baseline QTcF (ΔQTcF) was investigated by a linear mixed‐effects modeling approach with a treatment effect‐specific intercept. […] The geometric mean of the individual Cmax values for subjects on the active dose were determined.

[3] = Plasma pharmacokinetics after single dose in healthy subjects (LC-MS/MS, noncompartmental analysis); type: in vivo, human
Method: Moxifloxacin was administered open‐label.
Plasma concentrations less than the lower limit of quantification were reported as 0. Plasma concentrations of durlobactam were determined by validated liquid chromatography with tandem mass spectrometry (LC‐MS/MS) assays operated in the negative ion mode (method number M8351072B) performed at Covance (Salt Lake City, UT). For durlobactam, the quantitation range was 5–5000 ng/ml. Moxifloxacin plasma concentrations were determined by LC‐MS/MS operated in the positive ion mode (method number 180M001.01) performed at Pharmaron ABS (Germantown, PA). The quantitation range was 1–1000 ng/ml.
PK parameters were determined with noncompartmental analysis using Phoenix WinNonlin (version 7.0 or higher), and PK parameters were compared with SAS version 9.3 or higher.

healthy subjects [4] = assay: Cardiodynamic evaluation, 12-lead 24-h Holter ECG (QTcF, HR, categorical outliers); conditions: for mean placebo-corrected ΔHR (ΔΔHR) / placebo-corrected change from baseline QTcF (ΔΔQTcF): durlobactam 4 g i.v.; for placebo-corrected change from baseline QTcF (ΔΔQTcF): mean ± spread (90% CI); for subjects with QTcF greater than 450 ms and less than or equal to 480 ms: single dose durlobactam 4 g i.v. or moxifloxacin 400 mg oral
Method: This was a partially double‐blind study in healthy adult subjects, which was conducted as a placebo‐ and active‐controlled, single‐infusion, three‐way crossover study. […] Study treatments were administered in the fasted state on day 1 of each treatment period. A 7 (±2) day washout period occurred between successive treatments. Subjects, investigator, and sponsor were blinded to durlobactam and placebo treatment assignment. Moxifloxacin was administered open‐label.
Variables associated with the primary ECG end point, placebo‐corrected change‐from‐baseline QTcF (ΔΔQTcF), were computed from means of measurements made on multiple replicate ECGs extracted at scheduled timepoints from Holter 12‐lead ECG data. Holter 12‐lead ECGs were read centrally (ERT, Rochester, NY). ECG end points included change‐from‐baseline HR, QTcF, PR, and QRS (ΔHR, ΔQTcF, ΔPR, and ΔQRS); placebo‐corrected change‐from‐baseline HR, PR, and QRS (ΔΔHR, ΔΔPR, and ΔΔQRS); categorical outliers for QTcF, HR, PR, and QRS; and frequency of treatment‐emergent changes of T‐wave morphology and U‐wave presence.
During each treatment period, 12‐lead, 24‐h Holter ECGs were continuously recorded and evaluated by a central ECG laboratory.

[5] = single dose, normal renal function; cited from earlier work
healthy subjects [6] = assay: Safety and tolerability (adverse events); type: in vivo, human; conditions: for serious AEs, discontinuation for AEs, deaths: all treatment groups; for incidence of at least one AE: single dose durlobactam 4 g i.v. or moxifloxacin 400 mg oral
Method: Safety was assessed from vital signs (systolic/diastolic blood pressure, HR, respiratory rate, and body temperature), physical examination, clinical laboratory tests (serum chemistry, hematology, and urinalysis), 12‐lead safety ECGs, and adverse events (AEs).

[7] = patients with complicated urinary tract infection, durlobactam/sulbactam 1 g every 6 h for 7 days; cited from earlier work
[8] = parameters: method as in PMID 32284380; conditions: multiple dose regimen for 11 days, 1 g i.v. dose; cited from earlier work
[9] = test system: class A, C, and D β-lactamases; conditions: cited from earlier work

## CC1=C[C@@H]2CN(C(=O)N2OS(=O)(=O)O)[C@@H]1C(N)=O [durlobactam]
[1]
  estimated Cmax from linear regression of dose normalized Cmax versus creatinine clearance: 60,000 ng/ml
Healthy subjects [2]; durlobactam
  plasma concentration up to which an effect on ΔΔQTcF exceeding 10 ms was excluded: ~190,000 ng/ml
Healthy subjects [2]; durlobactam 4 g i.v. over 3 h
  effect on ECG parameters including QT interval prolongation (C-QT analysis): no significant effect
Healthy subjects [2]; durlobactam, planned dose of 1 g
  fold of excluded concentration (190,000 ng/ml) over therapeutic plasma concentrations: over 3 fold
Healthy subjects [2]; durlobactam, not statistically significant
  treatment effect-specific intercept: 0.6 ms
Healthy subjects [2]; durlobactam, not statistically significant, 90% CI -0.0000232 to 0.0000194
  estimated slope of the plasma concentration-QTc relationship: −0.0000019 ms per ng/ml
[3]; durlobactam 4 g single 3-h i.v. infusion, n = 31, mean
  Vz (volume of distribution): 33.6 ± 5.2 L
[3]; durlobactam 4 g single 3-h i.v. infusion, n = 31, mean, after start of infusion
  Tmax: 3.1 ± 0.32 h
[3]; human, plasma, iv, 4 g, durlobactam 4 g single 3-h i.v. infusion, healthy subjects, n = 31, mean, read-out: Cmax
  Cmax: 108 µg/mL
[3]; human, plasma, iv, 4 g, durlobactam 4 g single 3-h i.v. infusion, n = 31, mean, after start of infusion, read-out: Tmax
  Tmax: ~3 h
[3]; human, plasma, iv, 4 g, durlobactam 4 g single 3-h i.v. infusion, n = 31, mean, read-out: Vz (volume of distribution)
  Vd: 33.6 L
[3]; human, plasma, iv, 4 g, durlobactam 4 g single 3-h i.v. infusion, read-out: observed geometric mean Cmax
  Cmax: 106 µg/mL
[3]; human, plasma, iv, durlobactam 4 g single 3-h i.v. infusion, n = 31, mean
  AUC(0-inf): 413 µg·h/mL
[3]; human, plasma, iv, durlobactam 4 g single 3-h i.v. infusion, n = 31, mean, read-out: AUC0-24
  AUC(0-t): 413 µg·h/mL
[3]; human, plasma, iv, durlobactam 4 g single 3-h i.v. infusion, n = 31, mean, read-out: CL (total body clearance) (converted)
  clearance: ~165 mL/min
[3]; human, plasma, iv, durlobactam 4 g single 3-h i.v. infusion, read-out: mean apparent half-life (converted)
  half-life: 2.3 h
[3]; patients with normal renal function
  fold increase of mean Cmax (4 g dose) above maximum Cmax predicted with a 1 g dose: ~3.2 fold
[3]; patients with severe renal impairment
  fold increase of mean Cmax (4 g dose) above maximum Cmax predicted with a 1 g dose: ~1.5 fold
Healthy subjects [4]; 3 h post-start-of-infusion
  mean placebo-corrected ΔHR (ΔΔHR): −2.6 bpm
Healthy subjects [4]; 4 h post-start-of-infusion
  mean placebo-corrected ΔHR (ΔΔHR): −0.2 bpm
Healthy subjects [4]; 6 h
  placebo-corrected change from baseline QTcF (ΔΔQTcF): 1.8 ms
Healthy subjects [4]; 8 h
  placebo-corrected change from baseline QTcF (ΔΔQTcF): 1.8 ms
Healthy subjects [4]; 24 h
  placebo-corrected change from baseline QTcF (ΔΔQTcF): 0.0 ms
Healthy subjects [4]; durlobactam 4 g supratherapeutic dose
  effect on HR: no clinically relevant effect on HR
Healthy subjects [4]
  subjects with QTcF greater than 450 ms and less than or equal to 480 ms: 3.2%
[5]
  Cmax: 27,000 ng/ml
Healthy subjects [6]
  serious AEs, discontinuation for AEs, deaths: No serious AEs, discontinuation for AEs, or deaths occurred
  incidence of at least one AE: 19.4%
Healthy subjects [6]; durlobactam 4 g i.v., 2 subjects
  incidence of fatigue (AE): 6.5%
[7]
  Cmax: 39,900 ng/ml
[8]
  Cmax: 28.1 µg/mL
[9]
  β-lactamase inhibition: inhibits class A, C, and D β‐lactamases

## COc1c(N2C[C@@H]3CCCN[C@@H]3C2)c(F)cc2c(=O)c(C(=O)O)cn(C3CC3)c12 [moxifloxacin, reference compound]
Healthy subjects [2]; human, in vivo
  slope of the concentration-QTc relationship: 0.0065 ms per ng/ml
  treatment effect-specific intercept: 0.4 ms
[3]; human, plasma, po, 400 mg, moxifloxacin single 400 mg oral dose, read-out: mean Cmax
  Cmax: 2.18 µg/mL
[3]; human, plasma, po, 400 mg, moxifloxacin single 400 mg oral dose, read-out: time to peak plasma concentration
  Tmax: ~1.9 h
[3]; human, plasma, moxifloxacin single 400 mg oral dose, read-out: mean AUC0-last
  AUC(0-t): 22.6 µg·h/mL
[3]; moxifloxacin single 400 mg oral dose
  geometric mean peak concentration: 2103.4 ng/mL
Healthy subjects [4]
  subjects with QTcF greater than 450 ms and less than or equal to 480 ms: 6.5%
Healthy subjects [4]; single dose moxifloxacin 400 mg oral
  subjects with ΔQTcF greater than 30 ms and less than or equal to 60 ms: 6.5%
Healthy subjects [6]
  serious AEs, discontinuation for AEs, deaths: No serious AEs, discontinuation for AEs, or deaths occurred
  incidence of at least one AE: 22.6%
